Assay results from patent EP4349333A1, “USE OF AMINOPYRIDINE, IN PARTICULAR AMIRAMPRIDINE, IN THE TREATMENT OF VIRALLY ASSOCIATED FATIGUE” (Böhmeke, Thomas, priority 2022, dated 2024).

Columns and labels:
[1] = tested on: Lambert-Eaton-Myasthenie-Syndrom (LEMS); settings: cited from earlier work
[2] = tested on: Fatigue-Symptomatik bei MS-Patienten; settings: described in the literature; cited from earlier work
[3] = tested on: Fatigue-Symptomatik nach Covid-Infektion; assay: Off-label case reports (Fall 1-3) in fatigue after Covid infection; type: in vivo, Patienten
Description: (§1) In den nachfolgend genannten Anwendungsbeispielen wurde 3,4-Diaminopyridin Amifamprindin (Formulierung als Fertigarzneimittel) verabreicht. Im Rahmen der doppelt-blind Studie wurden gleich aussende Kapseln mit Amifampridin oder Placebo apothekenseitig verblindet zubereitet, wobei nur apothekenseitig bekannt war welche Kapseln Wirkstoff oder Placebo enthielten.
Ruhebedürfnis bis zu 20 Stunden pro Tag (brain fog) sowie ausgeprägter Konzentrationsschwäche.
Im Fall 2 wird eine Patientin beschrieben, die ebenfalls unter einer gravierenden Fatigue-Symptomatik nach Covid-Infektion 5/22 litt, eine zuzuordnende neurologische oder internistische Grunderkrankung bestand nicht. […] Die nachfolgenden Labor- und EKG-Kontrollen zur Erfassung substanzassoziierter Komplikationen waren unauffällig.
Im Fall 3 wird ein Patient beschrieben, der nach zweimaliger Covid-Infektion unter Fatigue-Symptomatik mit einem Schlafbedürfnis bis zu 2 x 9 Stunden pro Tag litt.

[4] = tested on: Fatigue-Symptomatik bei Post-Covid-Syndrom; assay: Further study / case series Pat. 1-5: Bell-Score and sleep need in post-Covid syndrome; type: in vivo, Patienten
Description: (§2) Die Bell-score (oder skala) ist ein Massstab der Behinderung bei ME & CFS. Auch für Long Covid-Patient:innen ist sie geeignet. Die Bell-Skala ist individuell, da jeder Patientinnen eine unterschiedliche Belastungsintoleranz aufweist und das Erleiden von schweren Symptomen in Ruhe verhältnismässig unterschiedlich sein kann.
Es wurde eine weitere Studie an einer Patientengruppe durchgeführt.
Die Prävalenz eines Post-Covid-Syndroms (PCS) liegt bei 10-15 % nach SARS-COV-2-Infektion, neben spezifischen Organerkrankungen treten vielfältige funktionelle Beschwerden auf, vorrangig eine Fatigue-Symptomatik. Diese ist gekennzeichnet durch persistierende Müdigkeit, Schwäche, kognitive Defizite sowie vermehrtem Schlafbedürfnis. In dieser Studie bzw. Fallserie wird der Effekt von Amifampridin bei Patienten mit PCS beschrieben, die unter unphysiologisch gesteigertem Schlafbedürfnis sowie eingeschränkter Kognition litten. Zur Evaluation wurde der Bell-Score verwendet, der auf die Einschränkung der Vigilanz, körperlichen Belastbarkeit und Berufstätigkeit fokussiert.

[5] = tested on: Fatigue-Symptomatik nach SARS-COV-2-Infektion; assay: Double-blind withdrawal trial, verum and placebo for 3 days each; type: in vivo, Patienten; settings: Pat. 2.1; on Amifampridin at start of verum phase (4 x 5 mg per day, days 1-3)
Description: as §1
Bei Pat. 2.1 und 2.2 waren zur Rekonvaleszenz eine Dauermedikation mit jeweils 20 mg Amifampridin pro Tag erforderlich und boten damit Voraussetzungen für einen doppelt-blinden Auslassversuch über jeweils 3 Tage.
Pat. 2.1 mit Verum an Tagen 1-3, nachfolgend Placebo an den Tagen 4-6: Pat. (Pat. 2.1) mit Bell-Score 90 begann bereits mit Amifampridin, wie vorstehend beschrieben, und setzte diese mit Blister mit 6 Tagesdosen je Tag ein Fach mit Kapseln für 3 Tage mit je 4 mal 5 mg Amifampridin fort. Die Dosierung betrugt jeweils für 3 Tage Placebo mit je 4mal Placebo-Kapseln für Patient 1 und 2 (Verum und Placebo).

[6] = tested on: Fatigue-Symptomatik nach SARS-COV-2-Infektion; assay: Patients 2.1 to 2.5: Bell-Score and sleep need with Amifampridin (Fig. 1 and 2); type: in vivo, Patienten
Description: as §2
Die nachfolgenden Dosierungen der Patienten 2.1 bis 2.5 und die veränderten Bell-Sore Werte sowie das Schlafbedürfnis in Stunden sind in den Figuren 1 und 2 dargestellt (Fig. 1 Bells-Sore mit und ohne Amifampridin, Patienten 2.1 bis 2.5, Fig. 2: kumulierte Schlafzeit in 24 h).

[7] = Pat. 5 (LEMS), 3 or 4 x 5 mg as daily dose
[8] = Pat. 2.5 (LEMS), initial 3 x 5 mg

Nc1ccncc1N [Amifampridine Phosphate (Firdapse), Amifampridine Phosphate]
koinzidente Fatigue ([1]; LEMS, 20 bis 80 mg als Tagesdosen, J Clin Neuromuscul Dis. 2019): Besserung einer koinzidenten Fatigue

Nc1ccncc1 [Fampridin]
begleitende Fatigue-Symptomatik [2]: Besserung

Nc1ccncc1N [Amifampridin, Pyridin-3,4-diamin]
muskuläre Defizite ([3]; Fall 1): umgehende Besserung
Fatigue-Symptomatik ([3]; Fall 1, since Covid infection, sleep/rest need up to 20 Stunden pro Tag before): schlagartige Besserung
Labor- und EKG-Kontrollen zur Erfassung substanzassoziierter Komplikationen ([3]; Fall 2): unauffällig
Fatigue-Symptomatik ([3]; Fall 2, 5 mg): komplette Besserung
Konzentrationsfähigkeit ([3]; Fall 2, 5 mg): vollständiger Restitution
zuzuordnende Nebenwirkung ([3]; Fall 2, 5 mg): leichte periorale Parästhesien
Fatigue ([3]; Fall 2, Tagesdosis 3 x 5 mg): sistiert die vorbestehende Fatigue vollständig
Konzentrationsfähigkeit ([3]; Fall 3, 5 mg): schlagartigen Besserung
Nebenwirkung (periorale Parästhesien) ([3]; Fall 3, 5 mg): transiente periorale Parästhesien mit sehr geringer Intensität
Schlaf- und Ruhebedürfnis ([3]; Fall 3, 5 mg): physiologischem
Schlafbedürfnis ([4]; Pat. 1, after 3 intakes of 5 mg over 24 h, before 12): 7 Stunden / 24h
Bell-Score ([4]; Pat. 1, after 3 intakes of 5 mg over 24 h, before 20 to 40): 100
Vigilanz ([4]; Pat. 2, after 3 doses of 5 mg): uneingeschränkte Vigilanz
Schlafbedürfnis ([4]; Pat. 2, after 3 doses of 5 mg, before 12): 7,5 Stunden /24 h
Bell-Score ([4]; Pat. 2, after 3 doses of 5 mg, before 40): 100
Schlafbedürfnis ([4]; Pat. 3, after one intake of 5 mg, before 11 to 12): 7-9 Stunden
Bell-Score ([4]; Pat. 3, after one intake of 5 mg, before 40): 100
duration of the effect ([4]; Pat. 3, one intake of 5 mg): ~36 Stunden
Bell-Score ([4]; Pat. 4, 3 x 5 mg over 24 h, before 20, Post-Covid-Myokarditis): 50
Fatigue [4, 7]: sistierte die Fatigue
muskuläre Belastbarkeit [4, 7]: gebesserte muskuläre Belastbarkeit
Schlafbedürfnis ([4]; Pat. 5 (LEMS), 3 or 4 x 5 mg as daily dose, before 16 to 18): 8-9 Stunden / 24h
Fatigue-Symptomatik ([4]; patient group of the further study, Post-Covid-Syndrom): reduzierte Fatigue-Symptomatik
Bell-Score [5]: 90
koindizierte Fatigue ([1]; LEMS-Patienten, stated as known): Besserung
Schlafbedürfnis ([6]; Pat. 2.1, after single intake of 5 mg, before 12): 7 Stunden / 24h
Bell-Score ([6]; Pat. 2.1, after single intake of 5 mg, before 20 to 40): 100
duration of the effect ([6]; Pat. 2.2, 5 mg): ~36 Stunden
Schlafbedürfnis ([6]; Pat. 2.2, after 5 mg, before 11-12): 7-9 Stunden
Bell-Score ([6]; Pat. 2.2, after 5 mg, before 40): 80
Vigilanz ([6]; Pat. 2.3, after 5 mg): uneingeschränkte Vigilanz
Schlafbedürfnis ([6]; Pat. 2.3, after 5 mg, before 12): 7,5 Stunden /24 h
Bell-Score ([6]; Pat. 2.3, after 5 mg, before 40): 100
Bell-Score in Bezug auf die muskulären Defizite ([6]; Pat. 2.5 (LEMS), 3 x 20 mg plus 5 mg if needed (60 to 70 mg per day)): ca. 20
Fatigue [6, 8]: sistierte die Fatigue
muskuläre Belastbarkeit [6, 8]: gebesserte muskuläre Belastbarkeit
Bell-Score ([6]; Pat. 2.5 (LEMS), initial 3 x 5 mg, before 10): 80
Schlafbedürfnis ([6]; Pat. 2.5 (LEMS), initial 3 x 5 mg, before 16-18): 8-9 Stunden / 24h
Bell-Score ([6]; Patientin 2.4, after 5 mg, before 20, Post-Covid-Myokarditis): 50
